Measured values as given in patent EP0185020B1, “NI[…] PREPARATION THEREOF AND UTILIZATION THEREOF IN ANTICANCEROUS CHEMIOTHERAPY” (CENTRE NATIONAL DE LA RECHERCHE SCIENTIFIQUE (CNRS), priority 1984, dated 1985).
Read-outs that look alike come from different tables or passages of the source.

Assays:
[1] = system: leucémie L 1210 greffée i.p.; assay: Antitumour activity on L1210 leukaemia grafted i.p. in mice, A1 and A2 injected separately (ICIG, Example 12); type: in vivo, souris B6D2F1/OLA; conditions: for activité antitumorale sur la leucémie L 1210, in words: each isomer given separately i.v.; for T/C × 100: i.v.
From the text: Au jour J: 0, des souris mâles B6D2F1 âgées de trois mois reçoivent par voie intrapéritonéale 10^5 cellules de la souche leucémique L 1210. Les animaux sont répartis en lots de 8 à 10 animaux pour les groupes témoins et de 6 à 8 animaux pour les groupes traités. Aux jours J : 1, J : 5, J : 9, les animaux reçoivent par voie intrapéritonéale ou intraveineuse le traitement à différentes doses. La CNCC est administrée en suspension dans l'huile d'olive. Les produits selon l'invention sont administrés dans du sérum physiologique. La mortalité est enregistrée tous les jours. La médiane de survie des animaux traités et des animaux témoins a été déterminée. Les résultats sont considérés comme positifs lorsque l'index I = [formula] est supérieur à 125.
La valeur ∞ signifie que 50 à 100% des animaux sont survivants au jour J : 90.
L'activité cytostatique sur la leucémie L 1210 de A, et A2 a été évaluée à l'ICIG chez des souris B6D2F1/OLA.
II a en outre été procédé à l'ICIG à une étude de l'activité antitumorale sur la leucémie L 1210 de chaque isomère A, et AZ administré séparément par voie intraveineuse. Les résultats sont rassemblés sur le tableau IV. […] La comparaison des doses actives à celles de la CNCC est impossible pour les raisons d'insolubilité de la CNCC énoncées précédemment.

[2] = system: Leucémie L 1210 (greffée par voie i.c.); set-up: key: N.S.: Non significatif; ∞: 50% en plus des animaux traités sont guéris; conditions: Leucémie L 1210 i.c., jours 1,5,9, cited from earlier work
[3] = system: Adénocarcinome mammaire TM2 (implanté en sous-cutané); set-up: key: N.S.: Non significatif; ∞: 50% en plus des animaux traités sont guéris; conditions: jours 1,5,9, cited from earlier work
[4] = system: Mélano-carcinome B 16 (implanté en sous-cutané); set-up: key: N.S.: Non significatif; ∞: 50% en plus des animaux traités sont guéris; conditions: Mélano-carcinome B 16 s.c., jours 1,5,9, cited from earlier work
[5] = system: Carcinome du côlon (côlon 26) (implanté en sous-cutané); set-up: key: N.S.: Non significatif; ∞: 50% en plus des animaux traités sont guéris; conditions: Carcinome du côlon (côlon 26) s.c., jours 1,5,9, cited from earlier work
[6] = system: Carcinome pulmonaire de Lewis (implanté en sous-cutané); set-up: key: N.S.: Non significatif; ∞: 50% en plus des animaux traités sont guéris; conditions: jours 1,5,9, cited from earlier work
[7] = system: M 555 ovarienne (implanté en sous-cutané); set-up: key: N.S.: Non significatif; ∞: 50% en plus des animaux traités sont guéris; conditions: M 555 ovarienne s.c., jours 1,5,9, cited from earlier work
[8] = system: Gliome 26 (implanté en sous-cutané); set-up: key: N.S.: Non significatif; ∞: 50% en plus des animaux traités sont guéris; conditions: Gliome 26 s.c., jours 1,5,9, cited from earlier work
[9] = system: Fibrosarcome I.C.I.G. C1 (implanté en sous-cutané); set-up: key: N.S.: Non significatif; ∞: 50% en plus des animaux traités sont guéris; conditions: jours 1,5,9, cited from earlier work

## C[S+]([O-])CCN(N=O)C(=O)NCCCl (stereo not drawn) [A1]
[1]
  activité antitumorale sur la leucémie L 1210, in words: faible activité
[1]; 5 mg/kg
  T/C × 100: 100
[1]; 10 mg/kg
  T/C × 100: 100
[1]; 20 mg/kg
  T/C × 100: 133
[1]; 30 mg/kg
  T/C × 100: 133
[1]; 40 mg/kg
  T/C × 100: 158
[1]; 50 mg/kg
  T/C × 100: 158
[1]; 60 mg/kg
  T/C × 100: Toxique

## C[S+]([O-])CCNC(=O)N(CCCl)N=O (stereo not drawn) [A2]
[1]
  activité antitumorale sur la leucémie L 1210, in words: forte activité
[1]; 1 mg/kg
  T/C × 100: 100
[1]; 5 mg/kg
  T/C × 100: ∞ (La valeur ∞ signifie que 50 à 100% des animaux sont survivants au jour J : 90)
[1]; 10 mg/kg
  T/C × 100: ∞ (La valeur ∞ signifie que 50 à 100% des animaux sont survivants au jour J : 90)
[1]; 20 mg/kg
  T/C × 100: 63
[1]; 30 mg/kg
  T/C × 100: 63
[1]; 40 mg/kg
  T/C × 100: 63

## O=NN(CCCl)C(=O)N[C@H]1C(O)O[C@H](CO)[C@@H](O)[C@@H]1O (stereo partly drawn) [CHLOROZOTOCINE]
[2]; 15 mg/kg I.P.
  Augmentation de la durée de survie (I.L.S.: T/C×100): N.S.
[3]; 15 mg/kg I.P.
  Augmentation de la durée de survie (I.L.S.: T/C×100): N.S.
[4]; 15 mg/kg I.P.
  Augmentation de la durée de survie (I.L.S.: T/C×100): N.S.
[5]; 15 mg/kg I.P.
  Augmentation de la durée de survie (I.L.S.: T/C×100): ∞ (50% en plus des animaux traités sont guéris)
[6]; 15 mg/kg I.P.
  Augmentation de la durée de survie (I.L.S.: T/C×100): N.S.
[7]; 15 mg/kg I.P.
  Augmentation de la durée de survie (I.L.S.: T/C×100): ∞ (50% en plus des animaux traités sont guéris)
[8]; 15 mg/kg I.P.
  Augmentation de la durée de survie (I.L.S.: T/C×100): N.S.
[9]; 15 mg/kg I.P.
  Augmentation de la durée de survie (I.L.S.: T/C×100): ∞ (50% en plus des animaux traités sont guéris)

## O=NN(CCCl)C(=O)NCCO [HECNU]
[2]; 10 mg/kg I.P.
  Augmentation de la durée de survie (I.L.S.: T/C×100): ∞ (50% en plus des animaux traités sont guéris)
[3]; 10 mg/kg I.P.
  Augmentation de la durée de survie (I.L.S.: T/C×100): 165
[4]; 10 mg/kg I.P.
  Augmentation de la durée de survie (I.L.S.: T/C×100): 198
[5]; 10 mg/kg I.P.
  Augmentation de la durée de survie (I.L.S.: T/C×100): ∞ (50% en plus des animaux traités sont guéris)
[6]; 10 mg/kg I.P.
  Augmentation de la durée de survie (I.L.S.: T/C×100): ∞ (50% en plus des animaux traités sont guéris)
[7]; 10 mg/kg I.P.
  Augmentation de la durée de survie (I.L.S.: T/C×100): 210
[8]; 10 mg/kg I.P.
  Augmentation de la durée de survie (I.L.S.: T/C×100): 182
[9]; 10 mg/kg I.P.
  Augmentation de la durée de survie (I.L.S.: T/C×100): N.S.

## CC1(C)O[C@@H]2[C@@H](COC(=O)c3ccc([N+](=O)[O-])cc3)OC(NC(=O)N(CCCl)N=O)[C@@H]2O1 (stereo partly drawn) [RFCNU]
[2]; 20 mg/kg I.P.
  Augmentation de la durée de survie (I.L.S.: T/C×100): 167
[3]; 20 mg/kg I.P.
  Augmentation de la durée de survie (I.L.S.: T/C×100): N.S.
[4]; 20 mg/kg I.P.
  Augmentation de la durée de survie (I.L.S.: T/C×100): 144
[5]; 20 mg/kg I.P.
  Augmentation de la durée de survie (I.L.S.: T/C×100): N.S.
[6]; 20 mg/kg I.P.
  Augmentation de la durée de survie (I.L.S.: T/C×100): N.S.
[7]; 20 mg/kg I.P.
  Augmentation de la durée de survie (I.L.S.: T/C×100): N.S.
[8]; 20 mg/kg I.P.
  Augmentation de la durée de survie (I.L.S.: T/C×100): N.S.
[9]; 20 mg/kg I.P.
  Augmentation de la durée de survie (I.L.S.: T/C×100): ∞ (50% en plus des animaux traités sont guéris)
